These results are taken from patent US20250332173A1, “COMPOUNDS AND METHODS FOR MODULATING NUCLEIC ACID SPLICING” (REMIX THERAPEUTICS INC., priority 2021, published 2025).

Read-outs that look alike come from different tables or passages of the source.

Holding throughout (format): cell-based, human
Assay [1] concerns Target C. The assay is described as follows: RT-qPCR splicing assay panel, Target C canonical junction (CJ) mRNA. The following applies: Table 5 panel, canonical junction qPCR, compound concentration having 50% response in CJ decrease, read-out: Target C IC50 (decrease in CJ mRNA levels). Put shortly: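 K562/A673 cells, 11-pt 3-fold compound titration from 10 uM final, DMSO ≤0.25%, 24 h 37 °C 5% CO2; lyse (DNase I or Igepal/Tris buffer pH 7.4); RT-qPCR for CJ isoform vs housekeeping gene (GAPDH/GUSB/PPIA).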

The subject of assay [2] is MYB. In words: HiBiT protein abundance assay, MYB HiBiT K562 cell line. The following applies: HiBiT K562 cell line, 24 hours, top dose 10 μM; read-out: Effect on protein abundance, MYB (IC50 category). Put shortly: (§1)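 K562 knock-in lines with endogenous HiBiT-tagged target, 10,000 cells/well in IMDM + FBS, treated 24 h at 37° C with 10-point 3-fold dilutions (top 10 μM final; DMSO ≤0.25%). Lytic Nano-Glo HiBiT luminescence normalized to untagged K562 baseline and DMSO controls; IC50 = concentration giving 50% abundance via four-parameter fit.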
On the technique in general: With HiBiT, luminescence reflects the tagged protein that the partner subunit can reach.

Assay [3] relates to HTT. The assay is described as follows: HiBiT protein abundance assay, HTT HiBiT K562 cell line. The note with it: HiBiT K562 cell line, 24 hours, top dose 10 μM; read-out: Effect on protein abundance, HTT (IC50 category). Put shortly:
as §1

With `Cc1cn2nc(-c3cc(F)c4c(=O)n(C5CCNCC5)cnc4c3)cc(C)c2n1` [Compound 243], the IC50 in assay [1] (Homo sapiens), in assay [2] and in assay [3] was < 100 nM each time.

As for `Cc1cn2cc(-c3ccc4c(=O)n(C5CCNCC5)cnc4c3)c(C)cc2n1` [Compound 244], the IC50 in assay [1] (Homo sapiens), in assay [2] and in assay [3] was > 10000 nM each time.

For `Cc1nc2c(F)cc(-c3ccc4c(=O)n(C5CCNCC5)cnc4c3)cc2o1` [Compound 245], the IC50 in assay [1] (Homo sapiens), in assay [2] and in assay [3] was 100 to 1000 nM throughout.

As for `Cc1cn2cc(-c3ccc4c(=O)n(C5CCN(C)CC5)cnc4c3)c(C)cc2n1` [Compound 246], the IC50 in assay [1] (Homo sapiens), in assay [2] and in assay [3] was 1000 to 10000 nM throughout.

Take `Cc1cn2cc(-c3ccc4c(c3)CCN(C3CCNCC3)C4=O)cc(F)c2n1` [Compound 247]: the IC50 fell in the range of 1000 to 10000 nM in assay [1] (Homo sapiens), 100 to 1000 nM in assay [2] and 100 to 1000 nM in assay [3].

As to `Cc1cn2cc(-c3ccc4c(=O)n(C5CCNCC5)ncc4c3)cc(F)c2n1` [Compound 248], the figures for the IC50 in assay [1] (Homo sapiens), in assay [2] and in assay [3] were 100 to 1000 nM, < 100 nM and < 100 nM, respectively.

Regarding `Cn1cc2cc(-c3ccc4c(=O)n(C5CCNCC5)ncc4c3)cc(F)c2n1` [Compound 249], the half-inhibitory concentration (IC50) in assay [1] (Homo sapiens), in assay [2] and in assay [3] was 1000 to 10000 nM throughout.

For `Cc1nc2c(F)cc(-c3ccc4c(=O)n(C5CCNCC5)ncc4c3)cc2o1` [Compound 250], the IC50 in assay [1] (Homo sapiens) is 100 to 1000 nM; in assay [2], < 100 nM; in assay [3], < 100 nM.

Turning to `Cc1cc(-c2ccc3c(=O)n(C4CCNCC4)ncc3c2)cc2cn(C)nc12` [Compound 251], the IC50 in assay [1] (Homo sapiens), in assay [2] and in assay [3] was 100 to 1000 nM throughout.

Turning to `Cc1cn2cc(-c3ccc4c(c3)CCN(C3CCNCC3)C4=O)cc(C(F)(F)F)c2n1` [Compound 252], the IC50 in assay [1] (Homo sapiens) is > 10000 nM; in assay [2], 1000 to 10000 nM; in assay [3], > 10000 nM.

Turning to `Cc1nc2c(F)cc(-c3ccc4c(=O)n(C5CCNCC5)ncc4c3)cc2s1` [Compound 253], the IC50 in assay [1] (Homo sapiens), in assay [2] and in assay [3] was 1000 to 10000 nM each time.

Take `Cc1cn2cc(-c3ccc4c(=O)n(C5CCNCC5)ncc4c3)c(C)cc2n1` [Compound 254]: the IC50 in assay [1] (Homo sapiens), in assay [2] and in assay [3] was 1000 to 10000 nM each time.

As for `Cc1cn2cc(-c3ccc4c(=O)n(C5CCNCC5)ncc4c3)ncc2n1` [Compound 255], the IC50 in assay [1] (Homo sapiens), in assay [2] and in assay [3] was > 10000 nM throughout.

Turning to `Cc1cn2cc(-c3ccc4c(=O)n(C5CCNCC5)ncc4c3)cc(Cl)c2n1` [Compound 256], the IC50 in assay [1] (Homo sapiens) was > 10000 nM; in assay [2] it was 100 to 1000 nM; in assay [3], 100 to 1000 nM.

As to `Cc1cn2cc(-c3ccc4c(=O)n(C5CCNCC5)ncc4c3)cc(C)c2n1` [Compound 257], the IC50 in assay [1] (Homo sapiens) lay within 1000 to 10000 nM; in assay [2], 100 to 1000 nM; in assay [3] it was 100 to 1000 nM.

`Cc1cn2nc(-c3ccc4c(=O)n(C5CCNCC5)ncc4c3)nc2c(C)n1` [Compound 259]: the IC50 in assay [1] (Homo sapiens), in assay [2] and in assay [3] was 100 to 1000 nM in each case.

For the compound `Cc1cn2nc(-c3ccc4c(=O)n(C5CCNCC5)ncc4c3)cc2c(C)n1` [Compound 260], the IC50 in assay [1] (Homo sapiens) fell in the range of 1000 to 10000 nM; in assay [2], 100 to 1000 nM; in assay [3], 100 to 1000 nM.

For the compound `O=c1c2ccc(-c3cn[nH]c3)cc2cnn1C1CCNCC1` [Compound 261], the IC50 in assay [1] (Homo sapiens), in assay [2] and in assay [3] was > 10000 nM each time.

With `Cc1cn2cc(-c3ccc4c(=O)n(C5CCNCC5)ncc4c3)cc(C(F)(F)F)c2n1` [Compound 262], the figures for the IC50 in assay [1] (Homo sapiens), in assay [2] and in assay [3] were 1000 to 10000 nM, 100 to 1000 nM and 1000 to 10000 nM, respectively.

For the compound `Cn1cc2ccc(-c3ccc4c(=O)n(C5CCNCC5)ncc4c3)cc2n1` [Compound 263], the IC50 in assay [1] (Homo sapiens), in assay [2] and in assay [3] was > 10000 nM throughout.

As for `Cc1cn2nc(-c3ccc4c(=O)n(C5CCNC5)ncc4c3)cc(C)c2n1` (stereo not drawn) [Compound 264], the IC50 in assay [1] (Homo sapiens) is > 10000 nM; in assay [2] it was 1000 to 10000 nM; in assay [3], 1000 to 10000 nM.

For `Cc1cn2nc(-c3ccc4c(=O)n(C5CCN(C)CC5)ncc4c3)cc(C)c2n1` [Compound 265], the IC50 in assay [1] (Homo sapiens) is 100 to 1000 nM; in assay [2] it was 100 to 1000 nM; in assay [3], < 100 nM.

For `Cc1cn2nc(-c3ccc4c(=O)n([C@@H]5CCNC6(CC6)C5)cnc4c3)cc(C)c2n1` [Compound 444], the figures for the IC50 in assay [1], in assay [2] and in assay [3] were 100 to 1000 nM, 100 to 1000 nM and < 100 nM, respectively.

Broadly, the IC50 is the concentration that inhibits the measured activity by half.
